#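 Following 48 hours of exposure in 96-well plates, responses at five concentrations were used to interpolate endpoints linearly. The concentration for 50% growth inhibition is given as GI50.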 The source made the active and inactive calls. No stated cut-off is given here; in the data, active = GI50 up to about 1.1 µM and inactive = higher.
# Key:
# Assay in all cases: NCI tumour cell line growth inhibition, 48 h
# [1] = test system: SK-OV-3
# [2] = test system: HCC 2998
# [3] = test system: KM12
# [4] = test system: UO-31
# [5] = test system: UACC-62
# [6] = test system: A549
# [7] = test system: RPMI-8226
# [8] = test system: MCF7
# [9] = test system: UACC-257
# [10] = test system: LOX IMVI
# [11] = test system: NCI-H23
# [12] = test system: CCRF-CEM
# [13] = test system: M14
# [14] = test system: IGROV-1
# [15] = test system: OVCAR-8
# [16] = test system: 786-0
# [17] = test system: U-251
# [18] = test system: OVCAR-4
# [19] = test system: SR
# [20] = test system: SNB-75
# [21] = test system: Malme-3M
# [22] = test system: HCT-15
# [23] = test system: COLO 205
# [24] = test system: SN12C
# [25] = test system: A498
# [26] = test system: HCT-116
# [27] = test system: K562
# [28] = test system: SNB-19
# [29] = test system: MOLT-4
# [30] = test system: SK-MEL-2
# [31] = test system: T47D
# [32] = test system: OVCAR-3
# [33] = test system: Hs-578T
# [34] = test system: MDA-MB-231
# [35] = test system: MDA-N
# [36] = test system: MDA-MB-435
# [37] = test system: SK-MEL-28
# [38] = test system: NCI-H226
# [39] = test system: DU-145
# [40] = test system: SF-539
# [41] = test system: SW-620
# [42] = test system: PC-3
# [43] = test system: NCI/ADR-RES
# [44] = test system: HOP-62
# [45] = test system: NCI-H522
# [46] = test system: EKVX
# [47] = test system: SK-MEL-5
# [48] = test system: NCI-H460
# [49] = test system: HL-60
# [50] = test system: TK-10
# [51] = test system: OVCAR-5
# [52] = test system: HT-29
# [53] = test system: RXF 393
# [54] = test system: CAKI-1
# [55] = test system: SF-268
# [56] = test system: ACHN
# [57] = test system: HOP-92
# [58] = test system: SF-295
structure (smiles),measurement,setting,value
CO[C@@H]1/C=C\C=C(/C)C(=O)NC2=CC(=O)C(NCCN(C)C)=C(C[C@@H](C)C[C@@H](OC)[C@@H](O)[C@H](C)/C=C(\C)[C@H]1OC(N)=O)C2=O,GI50,[1],0.0137 µM (active)
same,GI50,[2],0.015 µM (active)
same,GI50,[3],0.0122 µM (active)
same,GI50,[4],0.838 µM (active)
same,GI50,[5],0.0172 µM (active)
same,GI50,[6],< 0.01 µM (active)
same,GI50,[7],0.0713 µM (active)
same,GI50,[8],< 0.01 µM (active)
same,GI50,[9],0.0159 µM (active)
same,GI50,[10],0.0108 µM (active)
same,GI50,[11],< 0.01 µM (active)
same,GI50,[12],0.0247 µM (active)
same,GI50,[13],0.0104 µM (active)
same,GI50,[14],0.0139 µM (active)
same,GI50,[15],17.2 nM (active)
same,GI50,[16],0.0286 µM (active)
same,GI50,[17],0.011 µM (active)
same,GI50,[18],1.14 µM (inactive)
same,GI50,[19],< 0.01 µM (active)
same,GI50,[20],< 10 nM (active)
same,GI50,[21],0.013 µM (active)
same,GI50,[22],0.619 µM
same,GI50,[23],0.0145 µM (active)
same,GI50,[24],0.0113 µM (active)
same,GI50,[25],13.2 µM (inactive)
same,GI50,[26],0.0171 µM (active)
same,GI50,[27],0.0139 µM (active)
same,GI50,[28],0.0292 µM (active)
same,GI50,[29],0.0303 µM (active)
CN(C)C1COC2Cc3ccccc3C1O2 (stereo not given),GI50,[30],> 100 µM (inactive)
same,GI50,[31],> 100 µM (inactive)
same,GI50,[2],> 100 µM (inactive)
same,GI50,[32],> 100 µM (inactive)
same,GI50,[3],> 100 µM (inactive)
same,GI50,[4],> 100 µM (inactive)
same,GI50,[5],> 100 µM (inactive)
same,GI50,[7],> 100 µM (inactive)
same,GI50,[33],> 100 µM (inactive)
same,GI50,[8],> 100 µM (inactive)
same,GI50,[34],> 100 µM (inactive)
same,GI50,[9],> 100 µM (inactive)
same,GI50,[35],> 100 µM (inactive)
same,GI50,[36],> 100 µM (inactive)
same,GI50,[37],> 100 µM (inactive)
same,GI50,[38],> 100 µM (inactive)
same,GI50,[39],> 100 µM (inactive)
same,GI50,[40],> 100 µM (inactive)
same,GI50,[12],> 100 µM (inactive)
same,GI50,[41],> 100 µM (inactive)
same,GI50,[14],> 100 µM (inactive)
same,GI50,[42],> 100 µM (inactive)
same,GI50,[16],> 100 µM (inactive)
same,GI50,[17],> 100 µM (inactive)
same,GI50,[21],> 100 µM (inactive)
same,GI50,[43],> 100 µM (inactive)
same,GI50,[44],> 100 µM (inactive)
same,GI50,[45],> 100 µM (inactive)
same,GI50,[23],> 100 µM (inactive)
same,GI50,[46],> 100 µM (inactive)
same,GI50,[25],> 100 µM (inactive)
same,GI50,[47],> 100 µM (inactive)
same,GI50,[48],> 100 µM (inactive)
same,GI50,[28],> 100 µM (inactive)
same,GI50,[29],> 100 µM (inactive)
same,GI50,[49],> 100 µM (inactive)
CC(CC[C@@]1(C)C(=O)CCC2O[C@]21C)[C@H]1C[C@@H](c2ccoc2)OC1=O (stereo not given in full),GI50,[30],> 100 µM (inactive)
same,GI50,[31],> 100 µM (inactive)
same,GI50,[1],> 100 µM (inactive)
same,GI50,[50],35.8 µM (inactive)
same,GI50,[2],> 100 µM (inactive)
same,GI50,[32],26.9 µM (inactive)
same,GI50,[3],> 100 µM (inactive)
same,GI50,[51],61.1 µM (inactive)
same,GI50,[4],17.2 µM (inactive)
same,GI50,[5],95.9 µM (inactive)
same,GI50,[6],> 100 µM (inactive)
same,GI50,[7],35.5 µM (inactive)
same,GI50,[33],39.3 µM (inactive)
same,GI50,[8],65.6 µM (inactive)
same,GI50,[9],> 100 µM (inactive)
same,GI50,[10],19.8 µM (inactive)
same,GI50,[35],57.1 µM (inactive)
same,GI50,[36],44.1 µM (inactive)
same,GI50,[37],23.6 µM (inactive)
same,GI50,[38],> 100 µM (inactive)
same,GI50,[11],61.4 µM (inactive)
same,GI50,[39],57.9 µM (inactive)
same,GI50,[40],35.7 µM (inactive)
same,GI50,[12],19.6 µM (inactive)
same,GI50,[13],72.9 µM (inactive)
same,GI50,[41],31.9 µM (inactive)
same,GI50,[52],74.5 µM (inactive)
same,GI50,[14],67.3 µM (inactive)
same,GI50,[42],62.2 µM (inactive)
same,GI50,[16],28.8 µM (inactive)
same,GI50,[17],35.9 µM (inactive)
same,GI50,[18],20.6 µM (inactive)
same,GI50,[19],97.9 µM (inactive)
same,GI50,[53],17.2 µM (inactive)
same,GI50,[21],31.5 µM (inactive)
same,GI50,[54],26.5 µM (inactive)
same,GI50,[43],45.6 µM (inactive)
same,GI50,[55],31 µM (inactive)
same,GI50,[44],> 100 µM (inactive)
same,GI50,[22],35.7 µM
same,GI50,[45],3.17 µM (inactive)
same,GI50,[23],24.2 µM (inactive)
same,GI50,[46],> 100 µM (inactive)
same,GI50,[24],27.8 µM (inactive)
same,GI50,[25],> 100 µM (inactive)
same,GI50,[56],22.1 µM (inactive)
same,GI50,[26],19.5 µM (inactive)
same,GI50,[57],28.4 µM (inactive)
same,GI50,[47],> 100 µM (inactive)
same,GI50,[48],> 100 µM (inactive)
same,GI50,[27],22.3 µM (inactive)
same,GI50,[28],> 100 µM (inactive)
same,GI50,[58],> 100 µM (inactive)
same,GI50,[29],28.3 µM (inactive)
same,GI50,[49],23.7 µM (inactive)

# — ChEMBL document CHEMBL1201862, “PubChem BioAssay data set” (2004)
